# Assay results: US20260062412A1, “NITROGEN-CONTAINING HETEROCYCLIC COMPOUND HAVING MYT1 INHIBITORY ACTIVITY” (CHUGAI SEIYAKU KABUSHIKI KAISHA, priority 2023, published 2026)
# Structures can show the parent of a compound that is named as a salt.
# Target: MYT1 protein (Homo sapiens (Human), UniProt Q99640)
# Assay: Test for binding to ATP binding site of MYT1 (Kinase Tracer 178 / Eu-Anti-GST antibody TR-FRET)
# Settings: ATP binding site of MYT1, 30 minutes at room temperature
# Description: The binding capacity of each compound to the ATP binding site of MYT1 Kinase protein was evaluated. 5× Kinase Buffer A (manufactured by Thermo Fisher Scientific Inc., PV3189) was diluted to 5 times with Milli-Q water, thereby preparing 1× Kinase Buffer. Using 1× Kinase Buffer, MYT1 protein (manufactured by Carna Biosciences, Inc.) was diluted to a concentration of 0.005 μM and Eu-Anti-GST Antibody was diluted to a concentration of 1 μM. […] To a 96 well-plate, 2.5 μL of a compound diluted with DMSO was added. […] The mixture was well mixed and then allowed to stand at room temperature for 30 minutes. Thereafter, fluorescence wavelengths of 665 nm and 615 nm generated by irradiation with excitation light of 340 nm were detected using Envision (manufactured by PerkinElmer). The proportion of Tracer bound to MYT1 protein was calculated for every condition by dividing the intensity at the fluorescence wavelength of 665 nm by the intensity at the fluorescence wavelength of 615 nm.
# Chain of MYT1 protein (Q99640 whole entry): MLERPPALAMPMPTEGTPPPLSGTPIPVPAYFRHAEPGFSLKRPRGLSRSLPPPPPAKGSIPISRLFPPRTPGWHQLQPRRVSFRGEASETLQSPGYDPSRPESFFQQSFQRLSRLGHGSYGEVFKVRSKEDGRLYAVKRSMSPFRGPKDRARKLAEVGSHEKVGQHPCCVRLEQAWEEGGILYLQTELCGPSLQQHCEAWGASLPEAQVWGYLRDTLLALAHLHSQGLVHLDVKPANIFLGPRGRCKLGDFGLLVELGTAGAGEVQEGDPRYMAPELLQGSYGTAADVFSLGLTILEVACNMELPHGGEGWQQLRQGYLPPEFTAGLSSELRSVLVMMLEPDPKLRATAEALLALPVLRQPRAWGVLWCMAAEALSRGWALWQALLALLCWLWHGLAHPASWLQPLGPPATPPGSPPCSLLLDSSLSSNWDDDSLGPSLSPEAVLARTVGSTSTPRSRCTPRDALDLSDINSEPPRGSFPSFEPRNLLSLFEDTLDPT
row,Compound,IC50 [nM]
1,"Nc1c(-c2ccc(F)c3[nH]ncc23)c2cc(Br)c3nccnc3c2[nH]c1=O [Compound G1, 8-Amino-5-bromo-7-(7-fluoro-1H-indazol-4-yl)-10H-pyrido[2,3-f]quinoxalin-9-one]",16
2,"Nc1c(-c2cccc(O)c2)c2ccccc2[nH]c1=O [Compound A66, 3-Amino-4-(3-hydroxyphenyl)-1H-quinolin-2-one]",380
3,"CCOc1cc2c(-c3ccc(F)c4[nH]ncc34)c(N)c(=O)[nH]c2c2ccc(OC)nc12 [Compound T3, 3-Amino-6-ethoxy-4-(7-fluoro-1H-indazol-4-yl)-8-methoxy-1H-1,7-phenanthrolin-2-one]",6.1
4,"Cc1cc2c(-c3ccc(F)c4[nH]ncc34)c(N)c(=O)[nH]c2c2scnc12 [Compound K2, 7-Amino-6-(7-fluoro-1H-indazol-4-yl)-4-methyl-9H-[1,3]thiazolo[4,5-h]quinolin-8-one]",1.2
5,"CC(C)Nc1cc2c(-c3ccc(F)c4[nH]ncc34)c(N)c(=O)[nH]c2c2ncccc12 [Compound D20, 3-Amino-4-(7-fluoro-1H-indazol-4-yl)-6-(propan-2-ylamino)-1H-1,10-phenanthrolin-2-one]",7
6,"CC(C)Oc1cc2c(-c3cc(F)c(Cl)c4[nH]ncc34)c(N)c(=O)[nH]c2c2cccnc12 [Compound C194, 3-Amino-4-(7-chloro-6-fluoro-1H-indazol-4-yl)-6-propan-2-yloxy-1H-1,7-phenanthrolin-2-one]",1.6
7,"Nc1c(-c2ccc(F)c3[nH]ncc23)c2cc(N3CCC3)c3ncccc3c2[nH]c1=O [Compound C121, 3-Amino-6-(azetidin-1-yl)-4-(7-fluoro-1H-indazol-4-yl)-1H-1,7-phenanthrolin-2-one]",3
8,"Nc1c(-c2ccc(F)c3[nH]ncc23)c2cc(C3CNC3)c3ncccc3c2[nH]c1=O [Compound C132, 3-Amino-6-(azetidin-3-yl)-4-(7-fluoro-1H-indazol-4-yl)-1H-1,7-phenanthrolin-2-one; formate]",11
9,"Nc1c(-c2ccc(F)c3[nH]ncc23)c2cc(O[C@H]3C[C@@H](F)C3)c3nccnc3c2[nH]c1=O [Compound G17, 8-Amino-5-((1s,3s)-3-fluorocyclobutyl)oxy-7-(7-fluoro-1H-indazol-4-yl)-10H-pyrido[2,3-f]quinoxalin-9-one]",0.85
10,"Nc1c(-c2ccc3cn[nH]c3c2)c2cc(Cl)ccc2[nH]c1=O [Compound A49, 3-Amino-6-chloro-4-(1H-indazol-6-yl)-1H-quinolin-2-one]",790
11,"Nc1c(-c2cc(Cl)cc3[nH]ncc23)c2cc(Cl)ccc2[nH]c1=O [Compound A58, 3-Amino-6-chloro-4-(6-chloro-1H-indazol-4-yl)-1H-quinolin-2-one]",360
12,"Nc1c(-c2ccc(F)c3[nH]ncc23)c2cc(O[C@H]3CCCOC3)c3ncccc3c2[nH]c1=O [Compound C51, 3-Amino-4-(7-fluoro-1H-indazol-4-yl)-6-[(3S)-oxan-3-yl]oxy-1H-1,7-phenanthrolin-2-one]",1.7
13,"CO[C@H]1C[C@@H](Oc2cc3c(-c4ccc(F)c5[nH]ncc45)c(N)c(=O)[nH]c3c3cccnc23)C1 [Compound C29, 3-Amino-4-(7-fluoro-1H-indazol-4-yl)-6-((1s,3s)-3-methoxycyclobutoxy)-1,7-phenanthrolin-2(1H)-one]",3.3
14,"Nc1c(-c2ccc(F)c3[nH]ncc23)c2cc(N3CCC(N4CCOCC4)CC3)c3cccnc3c2[nH]c1=O [Compound D7, 3-Amino-4-(7-fluoro-1H-indazol-4-yl)-6-(4-morpholin-4-ylpiperidin-1-yl)-1H-1,10-phenanthrolin-2-one]",15
15,"Cc1cc2c(-c3ccc(C)c4[nH]ncc34)c(N)c(=O)[nH]c2c2cccnc12 [Compound C153, 3-Amino-6-methyl-4-(7-methyl-1H-indazol-4-yl)-1H-1,7-phenanthrolin-2-one]",4.4
16,"Nc1c(-c2ccc(Cl)c3[nH]ncc23)c2cc(Cl)cc(Br)c2[nH]c1=O [Compound A17, 3-Amino-8-bromo-6-chloro-4-(7-chloro-1H-indazol-4-yl)-1H-quinolin-2-one]",27
